Values of other authors, collected in patent US9928346B1, “Test panel to measure blood neurotoxin levels in prematernal women and for the general public in relation to mental disorders of the aging” (priority 2016, dated 2018).
Like-named read-outs stand apart in the source and are kept apart here.

Tests used:
[1] = orally consumed, toxicology assessment
[2] = for Minimum Risk Level: blood levels
[3] = for an average man

SMILES | absorption by the intestines (digested aluminum) | absorbed in the blood (intravenous injection from a vaccine) | Minimum Risk Level [1] | Minimum Risk Level [2] | MRL for blood content ([2]; recommended by Mayo Clinic and Micro Trace Minerals diagnostic centers) | tentative dietary suggestions [3]
[Al] [Aluminum, aluminum] | 1% | 100% | 1.0 mg Al/kg body weight/day | <6 microgram per liter | < 6 microgram/liter | –
[AsH3] [Arsenic, arsenic] | – | – | – | <10 microgram per liter | – | –
[Pb] [Lead, lead] | – | – | – | <50 microgram per liter | – | –
[Mn+2] [Manganese, manganese] | – | – | – | <18 microgram per liter | – | about 10 mg/day
